Results published in patent publication US9765058B2, “Substituted benzylpyrazoles” (BAYER PHARMA AKTIENGESELLSCHAFT, priority 2013, dated 2017).
pIC50: −log10 of the molar value. Where two headings read alike, the source gives them in different places.

Legend:
HeLa cell line = experiment: Proliferation assay (crystal violet); conditions: Homo sapiens, 96 h, read-out: Biological Assay 2: Proliferation assay (HeLa cell line) median IC50
Experimental: Cultivated tumor cells (cells were ordered from ATCC, except HeLa-MaTu and HeLa-MaTu-ADR, which were ordered from EPO-GmbH, Berlin) were plated at a density of 1000 to 5000 cells/well, depending on the growth rate of the respective cell line, in a 96-well multititer plate in 200 μL of their respective growth medium supplemented 10% fetal calf serum. After 24 hours, the cells of one plate (zero-point plate) were stained with crystal violet (see below), while the medium of the other plates was replaced by fresh culture medium (200 μL), to which the test substances were added in various concentrations (0 μM, as well as in the range of 0.001-10 μM; the final concentration of the solvent dimethyl sulfoxide was 0.5%). The cells were incubated for 4 days in the presence of test substances. Cell proliferation was determined by staining the cells with crystal violet: the cells were fixed by adding 20 μL/measuring point of an 11% glutaric aldehyde solution for 15 minutes at room temperature. After three washing cycles of the fixed cells with water, the plates were dried at room temperature. The cells were stained by adding 100 μL/measuring point of a 0.1% crystal violet solution (pH 3.0). After three washing cycles of the stained cells with water, the plates were dried at room temperature. The dye was dissolved by adding 100 μl/measuring point of a 10% acetic acid solution. Absorbtion was determined by photometry at a wavelength of 595 nm. The change of cell number, in percent, was calculated by normalization of the measured values to the absorbtion values of the zero-point plate (=0%) and the absorbtion of the untreated (0 μm) cells (=100%). The IC50 values were determined by means of a 4 parameter fit.

[1] = target: catalytic domain of human Bub1 (amino acids 704-1085) (Homo sapiens (Human), UniProt O43683); experiment: Bub1 kinase assay (TR-FRET); type: biochemical; conditions: read-out: Biological Assay 1: Bub1 kinase assay median IC50
Experimental: The stopped reaction mixture was further incubated 1 h at 22° C. in order to allow the formation of complexes between peptides and detection reagents. Subsequently, the amount of product was evaluated by measurement of the resonance energy transfer from the Eu-chelate-antibody complex recognizing the Phosphoserine residue to the streptavidin-XL665 bound to the biotin moiety of the peptide. […] IC50 values were calculated by fitting the normalized inhibition data to a 4-parameter logistic equation (Minimum, Maximum, IC50, Hill; Y=Max+(Min−Max)/(1+(X/IC50)Hill)).

[2] = TR-FRET, 10 μM ATP, 1 μM peptide substrate

Row | SMILES | pIC50 (HeLa cell line) | pIC50 [1, 2] | pIC50 [1]
1 | CCOc1cc(F)c(Cn2nc(-c3ncc(OC)c(Nc4ccncc4)n3)c(F)c2C)c(F)c1 [Example 2-2-6, 2-[1-(4-ethoxy-2,6-difluorobenzyl)-4-fluoro-5-methyl-1H-pyrazol-3-yl]-5-methoxy-N-(pyridin-4-yl)pyrimidin-4-amine] | 5.35 | 7.39 | 
2 | CCOc1cc(F)c(Cn2nc(-c3nccc(Nc4ccncc4C(N)=O)n3)c(Cl)c2C2CC2)c(F)c1 [Example 2-1-2, 4-({2-[4-chloro-5-cyclopropyl-1-(4-ethoxy-2,6-difluorobenzyl)-1H-pyrazol-3-yl]pyrimidin-4-yl}amino)nicotinamide] | 5.07 | 8.09 | 
3 | CCOc1cc(F)c(Cn2nc(-c3ncc(OC)c(Nc4ccncc4)n3)c(C)c2Br)c(F)c1 [Example 2-2-11, 2-[5-bromo-1-(4-ethoxy-2,6-difluorobenzyl)-4-methyl-1H-pyrazol-3-yl]-5-methoxy-N-(pyridin-4-yl)pyrimidin-4-amine] | 5.89 | 7.89 | 
4 | CCOC(=O)c1cnccc1Nc1nc(-c2nn(Cc3c(F)cc(OCC)cc3F)c(C)c2F)ncc1OC [Example 2-2-9, ethyl 4-({2-[1-(4-ethoxy-2,6-difluorobenzyl)-4-fluoro-5-methyl-1H-pyrazol-3-yl]-5-methoxypyrimidin-4-yl}amino)nicotinate] |  | 7.40 | 
5 | CCOc1cc(F)c(Cn2nc(-c3nccc(Nc4ccncc4C(=O)O)n3)c(Cl)c2C2CC2)c(F)c1 [Example 2-3-1, 4-({2-[4-chloro-5-cyclopropyl-1-(4-ethoxy-2,6-difluorobenzyl)-1H-pyrazol-3-yl]pyrimidin-4-yl}amino)nicotinic acid] |  |  | 7.96
6 | CCOc1cc(F)c(Cn2cc(Cl)c(-c3ncc(OC)c(Nc4ccncc4C(=O)NC)n3)n2)c(F)c1 [Example 2-4-2, 4-({2-[4-chloro-1-(4-ethoxy-2,6-difluorobenzyl)-1H-pyrazol-3-yl]-5-methoxypyrimidin-4-yl}amino)-N-methylnicotinamide] | < 5.00 | 7.89 | 
7 | CCOc1cc(F)c(Cn2nc(-c3nccc(Nc4ccncc4)n3)c(Cl)c2C2CC2)c(F)c1 [Example 2-2-1, 2-[4-chloro-5-cyclopropyl-1-(4-ethoxy-2,6-difluorobenzyl)-1H-pyrazol-3-yl]-N-(pyridin-4-yl)pyrimidin-4-amine] | 5.06 |  | 8.25
8 | CCOc1cc(F)c(Cn2cc(N(C)C)c(-c3ncc(OC)c(Nc4ccncc4)n3)n2)c(F)c1 [Example 2-2-10, 2-[4-(dimethylamino)-1-(4-ethoxy-2,6-difluorobenzyl)-1H-pyrazol-3-yl]-5-methoxy-N-(pyridin-4-yl)pyrimidin-4-amine] | < 5.00 | 6.60 | 
9 | CCOc1cc(F)c(Cn2nc(-c3ncc(OC)c(Nc4ccncc4)n3)c(Br)c2C)c(F)c1 [Example 2-2-4, 2-[4-bromo-1-(4-ethoxy-2,6-difluorobenzyl)-5-methyl-1H-pyrazol-3-yl]-5-methoxy-N-(pyridin-4-yl)pyrimidin-4-amine] | 5.48 | 7.62 | 
10 | CCOc1cc(F)c(Cn2cc(Cl)c(-c3ncc(OC)c(Nc4ccncc4C(N)=O)n3)n2)c(F)c1 [Example 2-4-3, 4-({2-[4-chloro-1-(4-ethoxy-2,6-difluorobenzyl)-1H-pyrazol-3-yl]-5-methoxypyrimidin-4-yl}amino)nicotinamide] | < 5.00 | 8.13 | 
11 | CCOc1cc(F)c(Cn2cc(Cl)c(-c3ncc(OC)c(Nc4ccncc4)n3)n2)c(F)c1 [Example 2-2-5, 2-[4-chloro-1-(4-ethoxy-2,6-difluorobenzyl)-1H-pyrazol-3-yl]-5-methoxy-N-(pyridin-4-yl)pyrimidin-4-amine] | 5.17 | 7.48 | 
12 | CCOc1cc(F)c(Cn2nc(-c3ncc(OC)c(Nc4ccncc4)n3)c(Cl)c2C)c(F)c1 [Example 2-2-3, 2-[4-chloro-1-(4-ethoxy-2,6-difluorobenzyl)-5-methyl-1H-pyrazol-3-yl]-5-methoxy-N-(pyridin-4-yl)pyrimidin-4-amine] | 5.42 | 8.00 | 
13 | CCOc1cc(F)c(Cn2nc(-c3ncc(OC)c(Nc4ccncc4)n3)c(C)c2C#N)c(F)c1 [Example 2-2-12, 1-(4-ethoxy-2,6-difluorobenzyl)-3-[5-methoxy-4-(pyridin-4-ylamino)pyrimidin-2-yl]-4-methyl-1H-pyrazole-5-carbonitrile] | < 5.00 | 7.00 | 
14 | CCOc1cc(F)c(Cn2nc(-c3ncc(OC)c(Nc4ccncc4C(N)=O)n3)c(F)c2C)c(F)c1 [Example 2-4-5, 4-({2-[1-(4-ethoxy-2,6-difluorobenzyl)-4-fluoro-5-methyl-1H-pyrazol-3-yl]-5-methoxypyrimidin-4-yl}amino)pyridine-3-carboxamide] | < 5.00 | 7.96 | 
15 | CCOc1cc(F)c(Cn2nc(-c3nccc(Nc4ccncc4C(=O)NC)n3)c(Cl)c2C2CC2)c(F)c1 [Example 2-1-1, 4-({2-[4-chloro-5-cyclopropyl-1-(4-ethoxy-2,6-difluorobenzyl)-1H-pyrazol-3-yl]pyrimidin-4-yl}amino)-N-methylnicotinamide] | < 5.00 | 8.33 | 
16 | CCOc1cc(F)c(Cn2nc(-c3ncc(OC)c(Nc4ccncc4)n3)c(C#N)c2C)c(F)c1 [Example 2-2-8, 1-(4-ethoxy-2,6-difluorobenzyl)-3-[5-methoxy-4-(pyridin-4-ylamino)pyrimidin-2-yl]-5-methyl-1H-pyrazole-4-carbonitrile] |  | 5.49 | 
17 | CCOC(=O)c1cnccc1Nc1ccnc(-c2nn(Cc3c(F)cc(OCC)cc3F)c(C3CC3)c2Cl)n1 [Example 2-2-2, ethyl 4-({2-[4-chloro-5-cyclopropyl-1-(4-ethoxy-2,6-difluorobenzyl)-1H-pyrazol-3-yl]pyrimidin-4-yl}amino)nicotinate] | 5.04 | 7.43 | 
18 | CCOc1cc(F)c(Cn2nc(-c3ncc(OC)c(Nc4ccncc4C(=O)NC)n3)c(F)c2C)c(F)c1 [Example 2-4-4, 4-({2-[1-(4-ethoxy-2,6-difluorobenzyl)-4-fluoro-5-methyl-1H-pyrazol-3-yl]-5-methoxypyrimidin-4-yl}amino)-N-methylnicotinamide] | < 5.00 | 8.00 | 
19 | CCOc1cc(F)c(Cn2nc(-c3nccc(Nc4ccncc4C(=O)NCCO)n3)c(Cl)c2C2CC2)c(F)c1 [Example 2-4-1, 4-({2-[4-chloro-5-cyclopropyl-1-(4-ethoxy-2,6-difluorobenzyl)-1H-pyrazol-3-yl]pyrimidin-4-yl}amino)-N-(2-hydroxyethyl)nicotinamide] | < 5.00 |  | 7.27
